These results are taken from patent US12262990B2, “Methods and materials for prolonged sweat stimulation” (priority 2016, dated 2025).

One series relates to skin. To be noted: cited from earlier work.
Series [1] addresses acetylcholinesterase (AChE) (Homo sapiens, UniProt P22303). The settings on record: in words; cited from earlier work.
The subject of a further series is Nicotinic receptor. To be noted: class symbols, key not given; cited from earlier work.
The next series has as its system Muscarinic receptor. To be noted: class symbols, key not given; cited from earlier work.
Another series concerns skin of 8 subjects. Kind of series: Example 2: iontophoretic sweat stimulation on 8 subjects, gravimetric sweat rate. Format: in vivo, human. An excerpt:
On 8 subjects, sweat was stimulated utilizing carbachol four times as detailed in Table 4 and one additional time utilizing pilocarpine. The stimulated area was divided among two circular test sites with areas of 0.88 cm^2 that were approximately 1 inch apart, which provides a total stimulation area of 1.76 cm^2. The carbachol doses in Table 4 are shown as percentages of the applied charge density compared to the charge density of pilocarpine applied by the commercial Wescor Nanoduct product, which is a charge density of 42 mC/cm^2. The pilocarpine was dosed over 150 seconds using a current of 0.28 mA/cm^2 and a charge density of 42 mC/cm^2, which delivered approximately 90.65 μg/cm^2.
Sweat rate was determined by a gravimetric test. Filter papers were weighed, placed on stimulated and control sites for 10 minutes under a specially designed acrylic holder that prevented any wicking of sweat from neighboring areas and prevented evaporation. The papers were immediately weighed again, and then sweat generation rates were calculated. The results from the gravimetric testing are plotted in FIGS. 4-6. Additionally, three subjects received three consecutive doses of 12.5% carbachol once the sweat rate had fallen below 1 nL/min/gland. The results from the repeated stimulation testing of subjects 1-3 are plotted in FIGS. 7A-7C, respectively.

For series [2], the system named is skin of Persons A and B. Kind of series: Example 1: sweat rates by visual and gravimetric (filter paper) testing. Format: in vivo, human. To be noted: for Sweat Generation Rate: single dose about 40 mC/cm^2. As for the experimental part: (§1) Sweat was stimulated on two persons (A and B) using for each person a current of 0.5 mA and a charge of 75 mC applied over a total stimulated area of 1.9 cm^2 for a time of 150 seconds. Thus, the total charge density was 75 mC/1.9 cm^2 or about 40 mC/cm^2, and the estimated dose of carbachol delivered to the skin was 0.142 mg. The charge density and stimulant dose estimates may vary based on other ionic impurities that are also dosed (e.g., sodium dosed could decrease the amount of carbachol dosed). The effect of the dosed ionic impurities can be estimated or quantified in any given case by analytical chemistry techniques. […] The stimulated area was divided among two circular test sites that were approximately 1 inch apart. Skin impedance was measured using a Gamry Potentiostat using 2 kHz and 1 V peak to peak sinewave. The electrical resistance results are plotted in FIGS. 2A-2D and 3A-3D for Persons A and B, respectively (the data has been separated into four charts for each person for the sake of clarity). The baseline plots were measured at a control site (i.e., non-stimulated skin) positioned within 1 inch of the stimulation site.
Sweat rates in nL/min/gland were also quantified using visual testing and gravimetric testing. Results from Person B are shown in FIG. 4 for a skin site of about 1 cm^2 of skin at 25 hours after stimulation. Approximately 130 active glands were counted per cm^2. Filter papers were weighed, placed on stimulated and control sites for 10 minutes under a plastic wrap to prevent evaporation, and immediately weighed again, and then sweat generation rates were calculated. […] The data for the stimulated sites 1 and 2 (paper measurements taken from each of the two stimulation areas) is shown in Table 2.

The subject of series [3] is skin of Persons A and B. Description: Example 1: iontophoretic sweat stimulation on two persons, followed by skin impedance. Format: in vivo, human. The settings on record: for duration of sweat stimulation from a single dose: about 40 mC/cm^2, estimated 0.142 mg, skin impedance. The method, then: as §1

Sequence of acetylcholinesterase (AChE) (P22303 32-614, species assumed): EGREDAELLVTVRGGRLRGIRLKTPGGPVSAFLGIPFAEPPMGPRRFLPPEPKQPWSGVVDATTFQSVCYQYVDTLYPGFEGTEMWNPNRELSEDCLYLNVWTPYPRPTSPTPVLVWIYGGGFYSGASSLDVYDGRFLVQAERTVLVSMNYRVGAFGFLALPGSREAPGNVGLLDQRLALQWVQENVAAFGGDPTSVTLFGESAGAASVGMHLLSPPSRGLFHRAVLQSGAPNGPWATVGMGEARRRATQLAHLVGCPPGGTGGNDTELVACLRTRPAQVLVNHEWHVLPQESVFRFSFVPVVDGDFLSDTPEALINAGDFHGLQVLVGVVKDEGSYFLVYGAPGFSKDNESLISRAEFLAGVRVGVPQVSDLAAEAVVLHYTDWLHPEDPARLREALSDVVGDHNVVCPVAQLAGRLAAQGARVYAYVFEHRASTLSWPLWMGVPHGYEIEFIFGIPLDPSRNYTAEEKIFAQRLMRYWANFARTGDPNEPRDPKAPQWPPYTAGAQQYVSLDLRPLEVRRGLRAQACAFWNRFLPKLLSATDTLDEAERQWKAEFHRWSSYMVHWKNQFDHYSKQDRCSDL

In the case of `CC[C@@H]1C(=O)OC[C@@H]1Cc1cncn1C` [Pilocarpine], the average sweat rate with skin (charge density of 40 mC/cm^2, for 90 minutes) is given as 1-4 nL/min/gland. Also, the “duration of sweat response” value in the series on skin (charge density of 40 mC/cm^2, on average) was 90 min.

For `CC(=O)OCC[N+](C)(C)C` [Acetylcholine], in series [1], the “metabolism by acetylcholinesterase (AChE)” value (“metabolism” below) is “rapidly metabolized”.

With `C[N+](C)(C)CCOC(N)=O` [Carbachol], the “Receptor Activity Nicotinic” value in the series with Nicotinic receptor is “strong”. Also, the “Receptor Activity Muscarinic” value with Muscarinic receptor is “strong”. In the series with skin of 8 subjects (5 out of 8 subjects, single 12.5% dose (5.25 mC/cm^2)), the “duration of stimulated sweating response of greater than 0.1 nL/min/gland” value is on record as “greater than 8 hours”. In addition, the “sustained sweating following a single iontophoretic dose, compared with pilocarpine” value in the series with skin of 8 subjects (8 subjects, in words) is given as “much longer than commonly observed for pilocarpine”. Also, the results for the “duration of sweating responses” value with skin of 8 subjects (four of the 8 subjects) and with skin of 8 subjects (three of the 8 subjects) were “greater than 24 hours” and “greater than 48 hours”, respectively. Besides, the “duration of sweating at greater than 1 nL/min/gland” value is on record as “greater than 24 hours” in the series with skin of 8 subjects (half of the subjects, single 100% dose (42 mC/cm^2)) and “greater than 7 hours” in the series with skin of 8 subjects (subjects e, g, h, 100% dosage (42 mC/cm^2)). Further, in the series on skin of Persons A and B [2] (40 mC/cm^2 charge density, for 24 hours), the sweat rate result is given as “greater than 1 nL/min/gland”. The active glands counted entry in the series with skin of Persons A and B [2] (Person B, skin site of about 1 cm^2, 25 hours after stimulation) is reported as “Approximately 130 per cm^2”. Moreover, the “Sweat Generation Rate” value in the series on skin of Persons A and B [2] (Subject A, Site 1, 4 hours after stimulation) was found to be 6.4 nl/min/gland; in the series on skin of Persons A and B [2] (Subject A, Site 1, 23 hours after stimulation), 3.3 nl/min/gland; in the series with skin of Persons A and B [2] (Subject A, Site 2, 4 hours after stimulation), 4.6 nl/min/gland; in the series on skin of Persons A and B [2] (Subject A, Site 2, 23 hours after stimulation), 3.1 nl/min/gland; in the series on skin of Persons A and B [2] (Subject B, Site 1, 5 hours after stimulation), 8.3 nl/min/gland; in the series on skin of Persons A and B [2] (Subject B, Site 1, 23 hours after stimulation), 0.3 nl/min/gland. The “Sweat Generation Rate” value in the series on skin of Persons A and B [2] (Subject B, Site 2, 5 hours after stimulation) came out at 9.4 nl/min/gland; in the series with skin of Persons A and B [2] (Subject B, Site 2, 23 hours after stimulation), 2.7 nl/min/gland. For the same compound, in the series on skin of Persons A and B [2] (charge density of less than 40 mC/cm^2), the stimulated sweat amount result is on record as “greater than 1,400 nL/gland/dose”. The “average sweat rates observed” value in the series on skin of Persons A and B [2] (for 24 hours, half the dose) is recorded as “greater than 2 nL/min/gland”. The “metabolism” value in series [1] was “metabolized much more slowly”. Moreover, the “duration of sweat stimulation from a single dose” value in the series with skin of Persons A and B [3] (Person A) is recorded as “at least 31 hours”; with skin of Persons A and B [3] (both Persons A and B), “at least 24 hours”. For the same compound, the “duration of sweat generation” value in the series on skin of Persons A and B [3] (lower charge densities than about 40 mC/cm^2) was 24 h.

As for `CC(=O)OC(C)C[N+](C)(C)C` (stereo not shown) [Methacholine], in series [1], the “metabolism” value is on record as “metabolized much more slowly”.
